According to US10961526B2, “Transformant, and method for producing protocatechuic acid or salt thereof using same” (RESEARCH INSTITUTE OF INNOVATIVE TECHNOLOGY FOR THE EARTH, priority 2016, dated 2021):

Assays:
Assay type in all cases: cell-based
[1] = tested on: Corynebacterium glutamicum strain R; assay: Glucose consumption under presence of high concentration of protocatechuic acid; details: high concentration of protocatechuic acid (0, 50, 250, 500 mM), 24-hour culture, 33° C.
Experimental: As indicated in Reference Example 1, Corynebacterium glutamicum was able to grow even under the presence of a high concentration of protocatechuic acid. Then, a glucose consumption ability of Corynebacterium glutamicum under the presence of a high concentration of protocatechuic acid was further studied in the following manner.
Corynebacterium glutamicum strain R was applied to the above-described A-agar plate containing glucose 4%, and was cultured at 33° C. for 16 hours. One platinum loop of Corynebacterium glutamicum strain R grown on the above-described plate was inoculated in a test tube having therein 10 ml of the above-described A-liquid medium containing glucose 4%, and was subjected to aerobic shaking culture at 33° C. for 16 hours. Corynebacterium glutamicum strain R grown under the above-described conditions was inoculated in 10 ml of the above-described A-liquid medium containing glucose 4% so that the initial bacterial cell concentration OD610=0.2. Simultaneously, protocatechuic acid was added so that the final concentrations thereof became 0, 50, 250, 500 mM, and aerobic shaking culture was carried out at 33° C. After 24-hour culture, culture solutions were collected, and centrifuged (4° C., 15,000×g, 5 minutes). Concentrations of glucose in the supernatants obtained were measured by a glucose sensor in the same manner as Example 2 to be described below. […]

[2] = tested on: Corynebacterium glutamicum strain R; assay: Inhibition by protocatechuic acid of growth in aerobic culture (OD610)
Excerpt: (§1) In a case where a product that has cytotoxicity, such as protocatechuic acid, is produced by the fermentation process using microorganisms, it is important that a host microorganism has resistance against the product, that is, hardly suffers from growth inhibition by the product. Then, for studying the degree of resistance against protocatechuic acid of Corynebacterium glutamicum, which is preferable as a host microorganism in the present invention, in comparison with other microorganisms, studies were made on the inhibition by protocatechuic acid of the growth of Corynebacterium glutamicum, Escherichia coli, Bacillus subtilis, Pseudomonas putida, Rhodococcus erythropolis, and Saccharomyces cerevisiae in aerobic culture.
Corynebacterium glutamicum strain R was applied to an A-agar plate [obtained by dissolving the following in distilled water 1 L: (NH2)2CO 2 g, (NH4)2SO4 7 g, KH2PO4 0.5 g, K2HPO4 0.5 g, MgSO4.7H2O 0.5 g, 0.06% (w/v) Fe2SO4.7H2O+0.042% (w/v) MnSO4.2H2O 1 ml, 0.02% (w/v) biotin solution 1 ml, 0.01% (w/v) thiamine solution 2 ml, yeast extract 2 g, vitamin assay casamino acid 7 g, agar 20 g] containing glucose at 4%, and was cultured at 33° C. for 16 hours. […] The growth of bacterial cells was determined by measuring OD610.
(§2) How the addition of protocatechuic acid to medium influenced aerobic growth of each strain was analyzed, and the results are shown in FIG. 2.

[3] = tested on: Saccharomyces cerevisiae strain NBRC2376; assay: as above; details: YPD liquid medium, aerobic shaking culture 30° C.
Excerpt: as §1
Further, Saccharomyces cerevisiae strain NBRC2376 was applied to YPD agar plate [2% polypeptone, 1% yeast extract, 2% glucose, and 1.5% agar], and was cultured at 30° C. for 16 hours. Saccharomyces cerevisiae strain NBRC2376 on the plate described above was inoculated in YPD liquid medium [2% polypeptone, 1% yeast extract, and 2% glucose], and was subjected to aerobic shaking culture at 30° C. for 16 hours. […] The growth of bacterial cells was determined by measuring OD610.
as §2

[4] = tested on: Pseudomonas putida strain ATCC700801; assay: as above; details: LB-liquid medium, aerobic shaking culture 30° C.
Excerpt: as §1
(§3) Further, Escherichia coli strain K12, Bacillus subtilis strain NBRC14144, Pseudomonas putida strain ATCC700801, and Rhodococcus erythropolis strain ATCC27854 were applied to LB-agar plate [containing 1% polypeptone, 0.5% yeast extract, 0.5% sodium chloride, and 1.5% agar]. Escherichia coli strain K12 and Bacillus subtilis strain NBRC14144 were cultured at 37° C. for 16 hours, while Pseudomonas putida strain ATCC700801 and Rhodococcus erythropolis strain ATCC27854 were cultured at 30° C. for 16 hours. Each strain grown on the plate described above was inoculated in 10 ml of LB-liquid medium [1% polypeptone, 0.5% yeast extract, and 0.5% sodium chloride]. Escherichia coli strain K12 and Bacillus subtilis strain NBRC14144 were subjected to aerobic shaking culture at 37° C. for 16 hours, while Pseudomonas putida strain ATCC700801 and Rhodococcus erythropolis strain ATCC27854 were subjected to aerobic shaking culture at 30° C. for 16 hours. Each strain grown under the above-described conditions was inoculated in 10 ml of the LB-liquid medium so that the initial bacterial cell concentration OD610=0.1, and simultaneously protocatechuic acid was added so that the final concentrations were 0, 25, 50, 100, 250, 500 mM. Escherichia coli strain K12 and Bacillus subtilis strain NBRC14144 were subjected to aerobic shaking culture at 37° C., while Pseudomonas putida strain ATCC700801 and Rhodococcus erythropolis strain ATCC27854 was subjected aerobic shaking culture at 30° C. The growth of bacterial cells was determined by measuring OD610.
as §2

[5] = tested on: Bacillus subtilis strain NBRC14144; assay: as above; details: LB-liquid medium, aerobic shaking culture 37° C.
Excerpt: as §1, §3, §2

[6] = tested on: Rhodococcus erythropolis strain ATCC27854; assay: as above; details: LB-liquid medium, aerobic shaking culture 30° C.
Excerpt: as §1, §3, §2

[7] = tested on: Escherichia coli strain K12; assay: as above; details: LB-liquid medium, aerobic shaking culture 37° C.
Excerpt: as §1, §3, §2

## O=C(O)c1ccc(O)c(O)c1 [protocatechuic acid]
[1]
  decrease in the saccharide consumption by Corynebacterium glutamicum: small
[2]; 500 mM protocatechuic acid
  growth capacity of Corynebacterium glutamicum: robust growth capacity
[2]; 250 to 500 mM of protocatechuic acid, A-liquid medium with glucose 4%, aerobic shaking culture 33° C.
  growth of Corynebacterium glutamicum strain R: robust growth
[3]; 250 mM protocatechuic acid
  growth of Saccharomyces cerevisiae strain NBRC2376: inhibited
[3]; 500 mM protocatechuic acid
  growth of Saccharomyces cerevisiae strain NBRC2376: significantly inhibited
[4]; 100 mM protocatechuic acid
  growth of Pseudomonas putida strain ATCC700801: strongly inhibited
[4]; 250 mM protocatechuic acid
  growth of Pseudomonas putida strain ATCC700801: substantially completely inhibited
[5]; 250 mM protocatechuic acid
  growth of Bacillus subtilis strain NBRC14144: significantly inhibited
[5]; 500 mM protocatechuic acid
  growth of Bacillus subtilis strain NBRC14144: substantially completely inhibited
[6]; 250 mM protocatechuic acid
  growth of Rhodococcus erythropolis strain ATCC27854: strongly inhibited
[6]; 500 mM protocatechuic acid
  growth of Rhodococcus erythropolis strain ATCC27854: substantially completely inhibited
[7]; 100 mM protocatechuic acid
  growth of Escherichia coli strain K12: significantly inhibited
[7]; 250 mM protocatechuic acid
  growth of Escherichia coli strain K12: substantially completely inhibited
